Source: PubChem BioAssay AID1996
Converted amounts (≈) assume the structure as drawn.

Conditions: buffer; pH 7.4; 200.0 µM

| SMILES | solubility kinetic [µg/mL] |
| --- | --- |
| CSc1ccc(-c2nc(CN(C)C3CCOC3)c(C)o2)cc1 (stereo not drawn) | 47.1 (≈ 148 µM) |
| COc1ccc(C(=O)CCN2CCCC(C)C2)cc1.Cl (stereo not drawn) | > 44.7 |
| O=C(O)C(=O)O.c1ccc(CCNC2CCCCCC2)cc1 | 45.3 |
| COc1ccccc1CCC(=O)OCC(=O)Nc1ccc2[nH]c(=O)[nH]c2c1 | 30.5 (≈ 82.6 µM) |
| O=C(CN1CCN(C(=O)c2ccccc2)CC1)Nc1ccccc1 | > 48.5 |
| O=C1c2ccccc2C(=O)N1Cc1cc(Cl)c(O)c([N+](=O)[O-])c1 | > 49.9 |
| O=C(NCc1cccc(Cl)c1)c1cc(=O)[nH]c2ccccc12 | 1.8 (≈ 5.76 µM) |
| Cc1noc(C)c1C(=O)NCC(=O)Nc1ccccc1Br | > 52.8 |
| CCOc1cccc(/C=C(\C#N)C(=O)NC2CC2)c1 | 27.2 (≈ 106 µM) |
| Cc1ccccc1OC(C)C(=O)Nc1ccc2c(c1)OCO2 (stereo not drawn) | 38.8 (≈ 130 µM) |
| CC(C)n1c(O)c(C=NCc2cccnc2)c(=O)[nH]c1=S | > 45.7 |
| Cc1cccc(Nc2c([N+](=O)[O-])ccc3nonc23)c1C | < 0.1 |
| COc1ccc(OCC(=O)O/N=C(\N)c2ccc(OC)cc2)cc1 | 1.2 (≈ 3.63 µM) |
| Cc1ccsc1C(=O)OC(C)C(=O)NC1CCCCC1C (stereo not drawn) | 6.4 (≈ 20.7 µM) |
| O=C(COC(=O)c1ccc([N+](=O)[O-])o1)NCCCc1ccccc1 | > 49.8 |
| Cc1ccc(N2C(=O)C3C4C=CC(CC4)C3C2=O)cc1Cl (stereo not drawn) | 1.4 (≈ 4.64 µM) |
| COc1cccc(-n2cc(-c3ccc(F)cc3)[nH]c2=S)c1 | 2.4 (≈ 7.99 µM) |
| COc1cc(OC)cc(C(=O)NC(c2ccccc2)c2ccccc2)c1 | < 0.7 |
| Cc1cc(NC(=O)CSc2nc3c(cc2C#N)CCC3)no1 | 1.4 (≈ 4.45 µM) |
| O=C(NCc1ccco1)c1ccc(Cl)cc1[N+](=O)[O-] | > 42.1 |
| Cc1cccn2cc(CCNC(=O)Cc3cccs3)nc12 | > 44.9 |
| CCC(=O)c1ccc(OCC(=O)NCc2ccccc2CN2CCCC2)cc1 | > 57.1 |
| COC(=O)C(Cc1ccccc1)NC(=O)CCC(=O)NC(C)CCc1ccccc1 (stereo not drawn) | > 61.6 |
| CC(C)(CN=C1NS(=O)(=O)c2ccccc21)CNC(=O)c1ccccc1 | > 55.7 |

| SMILES | solubility kinetic [µg/mL] |
| --- | --- |
| O=[N+]([O-])c1ccccc1Oc1ncccc1[N+](=O)[O-] | 27.3 (≈ 105 µM) |
| CCOn1c(=O)c(-c2ccc(F)cc2)[n+]([O-])c2ccccc21 | 9.9 (≈ 33 µM) |
| Cc1ccc2c(c1)N(CC(=O)N1CCC(O)CC1)C(=O)CO2 | > 45.7 |
| Cc1cc(C(=O)Nc2ncc(C)s2)c2ccccc2n1 | 18 (≈ 63.5 µM) |
| O=C(NCCCNC(=O)c1cnccn1)c1cccc(Cl)c1 | 47.1 (≈ 148 µM) |
| Cc1ccc2c(CC(=O)NCC(C)(C)N3CCOCC3)coc2c1 | > 49.6 |
| Cc1ccc2c(COC(=O)C3CC(=O)N(c4ccc5c(c4)OCCO5)C3)cc(=O)oc2c1 (stereo not drawn) | 19.6 (≈ 45 µM) |
| CCn1cc(C(=O)NCCC(=O)NCCCO)c(=O)c2cc3c(cc21)OCO3 | > 58.4 |
| CC(=O)Nc1ccc(S(=O)(=O)N2C(C)CCCC2C)cc1 (stereo not drawn) | > 46.6 |
| CC(C)c1ccc(Nc2nc(Cl)nc(Cl)n2)cc1 | 28.5 (≈ 101 µM) |
| OC1CCN(Cc2ccc(OCc3ccccc3)cc2)CC1 | > 44.6 |
| Cc1ccc(NS(=O)(=O)N2CCOCC2)cc1 | > 38.4 |
| O=C(CSc1ccccc1)Nc1ccc2sccc2c1 | 0.7 (≈ 2.34 µM) |
| O=C(NC(=O)c1ccccc1)Nc1cccc(S(=O)(=O)N2CCCCC2)c1 | 2.2 (≈ 5.68 µM) |
| COc1cccc(CNC(=S)NC2CC2)c1 | 35.2 (≈ 149 µM) |
| COCC(C)NC(=O)C1c2ccccc2Oc2ccccc21 (stereo not drawn) | 40.1 (≈ 135 µM) |
| COc1ccc(C(=O)NCC(=O)N2CCCC(C)C2)cc1OC (stereo not drawn) | > 48.1 |
| CC1CCCC(C)N1C(=O)COC(=O)CNC(=O)c1ccccc1F (stereo not drawn) | > 52.6 |
| COc1ccc(NC(=O)CN(C)C(=O)c2ccccc2OC)cc1 | > 49.3 |
| CCn1c(CNC(=O)c2ccccc2F)cc2cc(C)ccc21 | 0.8 (≈ 2.58 µM) |
| O=C(NCCc1ccccc1)c1c(O)c2ccccc2[nH]c1=O | < 0.3 |
| CCc1ccc(C(CC(=O)O)N2Cc3ccccc3C2=O)cc1 (stereo not drawn) | > 46.4 |
| Cc1ccc(C(=O)COc2ncnc3cc(Cl)ccc23)cc1 | 0.4 (≈ 1.28 µM) |
| CCn1cc(S(=O)(=O)Nc2ccc(Cl)cc2F)cn1 | > 45.6 |

| SMILES | solubility kinetic [µg/mL] |
| --- | --- |
| Cc1cc(F)ccc1S(=O)(=O)N(CC(=O)N1CCOCC1)CC(=O)N1CCOCC1 | > 66.5 |
| CC1CN(C(=O)COC(=O)Cc2c(Cl)cccc2Cl)CC(C)O1 (stereo not drawn) | > 54 |
| C/C(=N\NC(=O)c1cccc([N+](=O)[O-])c1)c1ccncc1 | > 42.6 |
| CCc1c(C)nc(N)nc1N1N=C1SCCOc1ccccc1 | > 49.4 |
| c1cncc(-c2nc(-c3ccc4c(c3)OCCO4)cs2)c1 | 4.6 (≈ 15.5 µM) |
| CCOc1ccc(C(=O)NCC(=O)N2CCCC2)cc1 | > 41.5 |
| CCN(CC)C(=O)c1ccc(-c2nnc(OC)c3ccccc23)cc1 | > 50.3 |
| CCOc1ccc(S(=O)(=O)N(C)CC(=O)NCc2ccccn2)cc1 | 50.2 (≈ 138 µM) |
| CN1CCN(C(=O)CCN2C(=O)/C(=C\c3ccc(F)cc3)SC2=S)CC1 | 22.3 (≈ 56.7 µM) |
| CCN(C(=O)COC(=O)CCC(=O)c1cccs1)C1CCCCC1 | > 52.7 |
| CSc1cccc(NC(=S)N2CCC(N(C)C3CCCC3)CC2)c1 | > 54.5 |
| CC(=O)c1cccc(NC(=O)COC(=O)c2ccccn2)c1 | 35 (≈ 117 µM) |
| COc1ccc(C)cc1Nc1c2c(nc3ccccc13)CCC2 | > 45.7 |
| CC1Cc2ccccc2N1C(=O)/C=C/c1cccc(F)c1 (stereo not drawn) | 6.2 (≈ 22 µM) |
| N=C(N)c1ccccc1 | > 18 |
| O=C(Nc1cccc(F)c1)c1c(O)c2cccc3c2n(c1=O)CCC3 | < 0.4 |
| Cc1nn(-c2cccc(C(=O)O)c2)c(C)c1[N+](=O)[O-] | > 39.2 |
| S=C(NCCc1ccccc1)Nc1ccc(N2CCCCC2)cc1 | 0.6 (≈ 1.77 µM) |
| CCOC(=O)/C(C#N)=C/C=C1\C=Cc2ccccc2N1CC | 0.7 (≈ 2.38 µM) |
| NC(N)=Nc1nc(-c2ccccc2)c2cc(F)ccc2n1 | > 42.2 |
| COc1cccc(NC(=O)Nc2ccc(Br)cn2)c1 | < 0.2 |
| COc1ccccc1C(=O)Nc1c(-c2ccccc2)nc2ccccn12 | 10 (≈ 29.1 µM) |
| Cc1ccnc(NC(=O)c2ccc(Cl)c(NC(=O)c3ccccc3C)c2)c1 | 1 (≈ 2.63 µM) |
| Cc1ccsc1C(=O)OCC(=O)N1CC(C)CC(C)C1 (stereo not drawn) | > 44.3 |

| SMILES | solubility kinetic [µg/mL] |
| --- | --- |
| O=C(O)c1cc(-c2ccccc2Cl)n(-c2ccccc2)n1 | > 44.8 |
| COc1ccccc1CCC(=O)OCC(=O)NCc1ccc(OC)c(OC)c1 | > 58.1 |
| CC(N)C(=O)OC(C)(C)Cc1ccc(Cl)cc1.Cl (stereo not drawn) | > 43.8 |
| CCNC(=S)N1CCn2cccc2C1c1cccnc1 (stereo not drawn) | 41 (≈ 143 µM) |
| O=C(Nc1cccc([N+](=O)[O-])c1)Nc1ccc2c(c1)OCCO2 | 0.4 (≈ 1.27 µM) |
| O=S(=O)(c1ccc(Cl)cc1)N1CCCCCC1 | 11.4 (≈ 41.6 µM) |
| O=C(Cc1ccc(Br)cc1)NCc1ccccc1 | 4.1 (≈ 13.5 µM) |
| Cc1cc2nc3c(=O)[nH]c(=S)[nH]c3nc2cc1NC(=O)C(F)(F)F | 26.8 (≈ 75.4 µM) |
| Cc1ccccc1C(=O)Nc1c(C)[nH]c(=O)[nH]c1=O | > 38.9 |
| O=C(COC(=O)c1ccccc1)NC(=O)NC1CCCC1 | 23.8 (≈ 82 µM) |
| Cc1ccc(S(=O)(=O)N2CCCCC2)cc1NC(=O)COC(=O)c1cccn1C | 9 (≈ 21.5 µM) |
| O=C(Nc1sc2c(c1C(=O)O)CCCCC2)c1ccccc1 | > 47.3 |
| O=C(NC1=NCCS1)c1ccc(Cl)c(Cl)c1 | 0.9 (≈ 3.27 µM) |
| Clc1ccc(Cl)c(-c2nc(-c3ccncc3)no2)c1 | < 0.2 |
| O=C(CSc1nncs1)NC(=O)NC1CCCC1 | > 43 |
| NC(=O)Cn1c(-c2nonc2N)nc2ccccc21 | > 38.7 |
| CCOC(=O)C1=C(C)OC(N)=C(C#N)C1c1ccc(C)s1 (stereo not drawn) | 13.2 (≈ 43.4 µM) |
| CCOC(=O)c1cc(NC(=O)N(C)C2CCCCC2)c(C)nc1C | > 50 |
| O=C(O)C1CCN(C(=O)CCc2ccccc2)CC1 | > 39.2 |
| COc1ccc(C(=O)CNc2cccc(F)c2)cc1 | 4.3 (≈ 16.6 µM) |
| Fc1cc(Br)cc(F)c1NC(=S)N1CCOCC1 | 33.8 (≈ 100 µM) |
| COc1ccccc1C/C(N)=N/OC(=O)c1ccc2c(c1)OCO2 | > 49.2 |
| Cc1[nH]c2ccccc2c1CCNCc1ccco1.Cl | > 43.6 |
| COc1cccc(/C=C/C(=O)N2CC(C)OC(C)C2)c1OC (stereo not drawn) | > 45.8 |

| SMILES | solubility kinetic [µg/mL] |
| --- | --- |
| CC(C)(C)OC(=O)N1CCC(CNC(=O)c2cccs2)CC1 | 42.4 (≈ 131 µM) |
| CN(C)S(=O)(=O)N1CCN(c2ccc([N+](=O)[O-])c(NC3CC3)c2)CC1 | 0.6 (≈ 1.62 µM) |
| Cn1cnc(S(=O)(=O)NC2CCN(Cc3c(F)cccc3Cl)CC2)c1 | > 58 |
| Cc1cc(C)c(C)c(OCCn2ccnc2)c1 | 31.4 (≈ 136 µM) |
| CC(NC(=O)c1cc(Br)cs1)C1CCCO1 (stereo not drawn) | > 45.6 |
| CC1CCN(C(=O)CS(=O)(=O)Cc2ccccc2)CC1 | 42.3 (≈ 143 µM) |
| CCCOc1ccc(Cc2c(O)nc(N)[nH]c2=O)cc1C | 15.6 (≈ 53.9 µM) |
| Cc1cc2cc(CNC(=O)C(C)Oc3ccccc3)ccc2n1C (stereo not drawn) | 11.4 (≈ 35.4 µM) |
| O=C(NC12CC3CC(CC(C3)C1)C2)c1cccc([N+](=O)[O-])c1 | 7.3 (≈ 24.3 µM) |
| O=C(Nc1ccc(Br)cc1)C1CC(c2c(F)cccc2Cl)=NO1 (stereo not drawn) | 6.7 (≈ 16.8 µM) |
| COc1ccc(NC(=O)NC2CCCCCCC2)cc1OC | 2.7 (≈ 8.81 µM) |
| O=C(NCCc1ccccc1)c1cnc(Cl)c(Cl)c1 | 11.6 (≈ 39.3 µM) |
| Cc1nc(C(F)(F)F)ccc1C(=O)NN1CCOCC1 | > 43.4 |
| COc1ccc(-c2nc(CCl)cs2)cc1OC.Cl | 41.8 |
| CCOc1cc(C)c(S(=O)(=O)NCCCn2ccnc2)cc1C | 41.2 (≈ 122 µM) |
| COC(=O)Cn1cc(/C=C/[N+](=O)[O-])c2ccccc21 | 30.6 (≈ 118 µM) |
| CCOc1cc(C(=O)OCC(=O)Nc2cccc(S(=O)(=O)NC3=NCCCCC3)c2)cc(OCC)c1OCC | 24.2 (≈ 43.1 µM) |
| O=C(O)CCC(=O)Nc1cccc(C(=O)c2ccccc2)c1 | > 44.6 |
| Cc1ccc(NC(=O)CCSCCc2ccccn2)cc1 | > 45.1 |
| COc1cc(C(=O)Nc2cccc(C(C)=O)c2)cc(OC)c1OC | > 49.4 |
| Cc1ccc(-n2c(=O)c3ccccc3n(CC(=O)C(C)(C)C)c2=O)cc1 | 7.7 (≈ 22 µM) |
| Nc1ncnc2nc(SCC(=O)Nc3ccccc3F)[nH]c12 | 29.8 (≈ 93.6 µM) |
